Laboratory results as given in patent US20250312499A1, “KISSPEPTIN RECEPTOR (KISS1R) TARGETED THERAPEUTICS AND USES THEREOF” (priority 2024, published 2025).
Numbered stars: 1 amine (or outer) side, 2 acyl side, 3 side chain; on linkers, the order of the positions; unused ones are H or OH. Square brackets hold non-standard residues; d marks the D form. Side chains are listed from the residue outwards. Peptide text beside a SMILES is read from it. * marks the point of attachment. DOTA = O=C(O)CN1CCN(CC(=O)O)CCN(CC(=O)*)CCN(CC(=O)O)CC1; Ala(9-anthryl) = N[C@@H](Cc1c2ccccc2cc2ccccc12)C(=O)O; Gly(N-(3-F-4-Me-benzyl)) = Cc1ccc(CNCC(=O)*)cc1F; Butanoyl(4-(4-I-phenyl)) = O=C(CCCc1ccc(I)cc1)*; Bpa = N[C@@H](Cc1ccc(C(=O)c2ccccc2)cc1)C(=O)O; Api(1-amidino) = N=C(N)N1CCC(N)(C(=O)O)CC1; d(γGlu) = O=C(O)[C@@H](CCC(=O)[*:2])N[*:1]; Hydrocinnamoyl(4-I) = O=C(CCc1ccc(I)cc1)*; X3 = CNC(=N)N1CCC(N[*:1])(C(=O)[*:2])CC1; Phe(4-I) = N[C@@H](Cc1ccc(I)cc1)C(=O)O; γGlu = O=C(O)[C@H](CCC(=O)[*:2])N[*:1]; 2Nal = N[C@@H](Cc1ccc2ccccc2c1)C(=O)O; d2Nal = N[C@H](Cc1ccc2ccccc2c1)C(=O)O; Palmitoyl = CCCCCCCCCCCCCCCC(=O)*; X1 = O=C(CN1CCC(N[*:1])CC1)[*:2]; 4Pal = N[C@@H](Cc1ccncc1)C(=O)O; d4Pal = N[C@H](Cc1ccncc1)C(=O)O; Cha = N[C@@H](CC1CCCCC1)C(=O)O; PEG4 = NCCOCCOCCOCCOCCC(=O)O; Octanoyl = CCCCCCCC(=O)*; Api = NC1(C(=O)O)CCNCC1; Ahx = NCCCCCC(=O)O; azaGly = NNC(=O)O; βAla = NCCC(=O)O; Sar = CNCC(=O)O

target: human kisspeptin receptor (Homo sapiens (Human), UniProt Q969F8); assay: Human KISS1R binding assay (membrane competition binding); conditions: 90 min at room temperature; competition with 0.2 nM [125I]-metastin (45-54); Flp-In T-Rex 293 kisspeptin membranes; metal complexes nonradioactive Ga, In, Lu; read-out: hKiSSR Binding Ki (90 min)
Sequence (Q969F8 whole entry): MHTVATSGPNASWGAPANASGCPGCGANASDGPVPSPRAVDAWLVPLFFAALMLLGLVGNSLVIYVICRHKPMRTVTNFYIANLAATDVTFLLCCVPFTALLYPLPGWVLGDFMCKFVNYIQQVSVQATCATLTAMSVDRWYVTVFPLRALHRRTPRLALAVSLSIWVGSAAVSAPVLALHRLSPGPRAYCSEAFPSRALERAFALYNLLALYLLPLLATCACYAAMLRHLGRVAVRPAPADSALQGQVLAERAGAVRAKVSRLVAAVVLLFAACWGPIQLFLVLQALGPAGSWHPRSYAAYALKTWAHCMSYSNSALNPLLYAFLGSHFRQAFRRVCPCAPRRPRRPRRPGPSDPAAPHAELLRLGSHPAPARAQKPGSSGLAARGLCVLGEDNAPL
Procedure, shortened: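 Radioligand competition: 0.2 nM [125I]-metastin (45-54) displaced by test ligand (usually 0–10,000 nM) over 90 min at room temperature, pH 7.4 buffer with 0.1% BSA. Receptor source is crude membrane (5–10 μg) from tetracycline-induced Flp-In T-Rex 293 cells. Bound label filtered and counted; Ki from non-linear regression.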

| Ki [nM] | Structure (SMILES) |
| --- | --- |
| < 10 | Cc1ccc(CNCC(=O)N2CCC(NC(=O)[C@H](CC(C)C)NC(=O)NNC(=O)[C@H](Cc3ccccc3)NC(=O)[C@@H](NC(=O)[C@H](CC(N)=O)NC(=O)[C@H](Cc3ccc(C(=O)c4ccccc4)cc3)NC(=O)[C@@H](Cc3ccc(O)cc3)NC(=O)CCCCCNC(=O)CN3CCN(CC(=O)O)CCN(CC(=O)O)CCN(CC(=O)O)CC3)[C@@H](C)O)(C(=O)N[C@@H](Cc3c[nH]c4ccccc34)C(N)=O)CC2)cc1F [Compound 364] ({DOTA-Ahx}-[dY][Bpa]NTF[azaGly]L[Api](Gly(N-(3-F-4-Me-benzyl)))W-NH2) |
| < 10 | Cc1ccc(CNCC(=O)N2CCC(NC(=O)[C@H](CC(C)C)NC(=O)NNC(=O)[C@H](CC3CCCCC3)NC(=O)[C@@H](NC(=O)[C@H](CC(N)=O)NC(=O)[C@@H](Cc3c[nH]c4ccccc34)NC(=O)[C@H](N)Cc3ccc(O)cc3)[C@@H](C)O)(C(=O)N[C@@H](Cc3c[nH]c4ccccc34)C(N)=O)CC2)cc1F [Compound 404] (H-[dY][dW]NT[Cha][azaGly]L[Api](Gly(N-(3-F-4-Me-benzyl)))W-NH2) |
| < 10 | CC(C)C[C@H](NC(=O)NNC(=O)[C@H](Cc1ccccc1)NC(=O)[C@@H](NC(=O)[C@H](CC(N)=O)NC(=O)[C@@H](Cc1ccc2ccccc2c1)NC(=O)CCCCCNC(=O)CN1CCN(CC(=O)O)CCN(CC(=O)O)CCN(CC(=O)O)CC1)[C@@H](C)O)C(=O)NC1(C(=O)N[C@@H](Cc2ccccc2)C(N)=O)CCN(C(=N)N)CC1 [Compound 301] ({DOTA-Ahx}-[d2Nal]NTF[azaGly]L[Api(1-amidino)]F-NH2) |
| < 10 | CNCC(=O)N1CCC(NC(=O)[C@H](CC(C)C)NC(=O)NNC(=O)[C@H](Cc2ccccc2)NC(=O)[C@@H](NC(=O)[C@H](CC(N)=O)NC(=O)[C@H](Cc2ccc(C(=O)c3ccccc3)cc2)NC(=O)[C@@H](Cc2ccc(O)cc2)NC(=O)CCCCCNC(=O)CN2CCN(CC(=O)O)CCN(CC(=O)O)CCN(CC(=O)O)CC2)[C@@H](C)O)(C(=O)N[C@@H](Cc2c[nH]c3ccccc23)C(N)=O)CC1 [Compound 346] ({DOTA-Ahx}-[dY][Bpa]NTF[azaGly]L[Api](Sar)W-NH2) |
| 10 to 100 | CC(C)C[C@H](NC(=O)NNC(=O)[C@H](Cc1ccccc1)NC(=O)CCCCCNC(=O)[C@H](Cc1ccc2ccccc2c1)NC(=O)[C@@H](Cc1ccc(O)cc1)NC(=O)CN1CCN(CC(=O)O)CCN(CC(=O)O)CCN(CC(=O)O)CC1)C(=O)NC1(C(=O)N[C@@H](Cc2c[nH]c3ccccc23)C(N)=O)CCN(C(=N)N)CC1 [Compound 287] ({DOTA}-[dY][2Nal][Ahx]F[azaGly]L[Api(1-amidino)]W-NH2) |
| < 10 | CNCC(=O)N1CCC(NC(=O)[C@H](CC(C)C)NC(=O)NNC(=O)[C@H](Cc2ccccc2)NC(=O)[C@@H](NC(=O)[C@H](CC(N)=O)NC(=O)[C@@H](Cc2ccc3ccccc3c2)NC(=O)[C@@H](Cc2ccc(O)cc2)NC(=O)CCCc2ccc(I)cc2)[C@@H](C)O)(C(=O)N[C@@H](Cc2c[nH]c3ccccc23)C(N)=O)CC1 [Compound 395] ({Butanoyl(4-(4-I-phenyl))}-[dY][d2Nal]NTF[azaGly]L[Api](Sar)W-NH2) |
| < 10 | CC(C)C[C@H](NC(=O)NNC(=O)[C@H](Cc1ccccc1)NC(=O)[C@@H](NC(=O)[C@H](CC(N)=O)NC(=O)[C@H](CCCCNC(=O)CN1CCN(CC(=O)O)CCN(CC(=O)O)CCN(CC(=O)O)CC1)NC(=O)[C@@H](Cc1ccc(O)cc1)NC(=O)CC[C@@H](NC(=O)CCc1ccc(I)cc1)C(=O)O)[C@@H](C)O)C(=O)NC1(C(=O)N[C@@H](Cc2c[nH]c3ccccc23)C(N)=O)CCN(C(=N)N)CC1 [Compound 320] ({Hydrocinnamoyl(4-I)-d(γGlu)}-[dY]K(DOTA)NTF[azaGly]L[Api(1-amidino)]W-NH2) |
| < 10 | CCCCCCCC(=O)N[C@H](Cc1ccc(O)cc1)C(=O)N[C@@H](CCCCNC(=O)CN1CCN(CC(=O)O)CCN(CC(=O)O)CCN(CC(=O)O)CC1)C(=O)N[C@@H](CC(N)=O)C(=O)N[C@H](C(=O)N[C@@H](Cc1ccccc1)C(=O)NNC(=O)N[C@@H](CC(C)C)C(=O)NC1(C(=O)N[C@@H](Cc2ccc(O)cc2)C(N)=O)CCN(C(=N)N)CC1)[C@@H](C)O [Compound 332] (Octanoyl-[dY]K(DOTA)NTF[azaGly]L[Api(1-amidino)]Y-NH2) |
| < 10 | CC(=O)N[C@H](Cc1ccc(O)cc1)C(=O)N[C@@H](CCCCNC(=O)CN1CCN(CC(=O)O)CCN(CC(=O)O)CCN(CC(=O)O)CC1)C(=O)N[C@@H](CC(N)=O)C(=O)N[C@H](C(=O)N[C@@H](Cc1ccccc1)C(=O)NNC(=O)N[C@@H](CC(C)C)C(=O)NC1(C(=O)N[C@@H](Cc2c[nH]c3ccccc23)C(N)=O)CCN(C(=O)CNCc2ccc(C)c(F)c2)CC1)[C@@H](C)O [Compound 380] (Ac-[dY]K(DOTA)NTF[azaGly]L[Api](Gly(N-(3-F-4-Me-benzyl)))W-NH2) |

Further lines, the compound ahead of its results:

| Structure (SMILES) | Ki [nM] |
| --- | --- |
| CC(C)C[C@H](NC(=O)NNC(=O)[C@H](Cc1ccccc1)NC(=O)[C@@H](NC(=O)[C@H](CC(N)=O)NC(=O)[C@H](Cc1c2ccccc2cc2ccccc12)NC(=O)[C@@H](Cc1ccc(O)cc1)NC(=O)CCCCCNC(=O)CN1CCN(CC(=O)O)CCN(CC(=O)O)CCN(CC(=O)O)CC1)[C@@H](C)O)C(=O)NC1(C(=O)N[C@@H](Cc2ccncc2)C(N)=O)CCN(C(=N)N)CC1 [Compound 222] ({DOTA-Ahx}-[dY][Ala(9-anthryl)]NTF[azaGly]L[Api(1-amidino)][4Pal]-NH2) | < 10 |
| Cc1ccc(CNCC(=O)N2CCC(NC(=O)[C@H](CC(C)C)NC(=O)NNC(=O)[C@H](Cc3ccccc3)NC(=O)CN3CCC(NC(=O)CN4CCN(CC(=O)O)CCN(CC(=O)O)CCN(CC(=O)O)CC4)CC3)(C(=O)N[C@@H](Cc3ccc(O)cc3)C(N)=O)CC2)cc1F [Compound 247] ({DOTA}-[X1]F[azaGly]L[Api](Gly(N-(3-F-4-Me-benzyl)))Y-NH2) | < 10 |
| CNC(=N)N1CCC(NC(=O)[C@H](CC(C)C)NC(=O)NNC(=O)[C@H](Cc2ccccc2)NC(=O)[C@@H](NC(=O)[C@H](CC(N)=O)NC(=O)[C@@H](Cc2c[nH]c3ccccc23)NC(=O)[C@@H](Cc2ccc(O)cc2)NC(=O)CCCCCNC(=O)CN2CCN(CC(=O)O)CCN(CC(=O)O)CCN(CC(=O)O)CC2)[C@@H](C)O)(C(=O)N[C@@H](Cc2c[nH]c3ccccc23)C(N)=O)CC1 [Compound 91] ({DOTA-Ahx}-[dY][dW]NTF[azaGly]L[X3]W-NH2) | < 10 |
| Cc1ccc(CNCC(=O)N2CCC(NC(=O)[C@H](CC(C)C)NC(=O)NNC(=O)[C@H](Cc3ccccc3)NC(=O)[C@@H](CC(N)=O)NC(=O)[C@@H](CC(N)=O)NC(=O)[C@@H](CC(N)=O)NC(=O)[C@@H](CC(N)=O)NC(=O)[C@@H](CC(N)=O)NC(=O)CCNC(=O)CN3CCN(CC(=O)O)CCN(CC(=O)O)CCN(CC(=O)O)CC3)(C(=O)N[C@@H](Cc3c[nH]c4ccccc34)C(N)=O)CC2)cc1F [Compound 14] ({DOTA-βAla}-[dN][dN][dN][dN][dN]F[azaGly]L[Api](Gly(N-(3-F-4-Me-benzyl)))W-NH2) | 10 to 100 |
| CCCCCCCCCCCCCCCC(=O)N[C@@H](CCC(=O)N[C@@H](CCCCNC(=O)CCOCCOCCOCCOCCNC(=O)CN1CCN(CC(=O)O)CCN(CC(=O)O)CCN(CC(=O)O)CC1)C(=O)N[C@H](Cc1ccc(O)cc1)C(=O)N[C@H](Cc1c[nH]c2ccccc12)C(=O)N[C@@H](CC(N)=O)C(=O)N[C@H](C(=O)N[C@@H](Cc1ccccc1)C(=O)NNC(=O)N[C@@H](CC(C)C)C(=O)NC1(C(=O)N[C@@H](Cc2c[nH]c3ccccc23)C(N)=O)CCN(C(=O)CNCc2ccc(C)c(F)c2)CC1)[C@@H](C)O)C(=O)O [Compound 119] ({Palmitoyl-γGlu}-K([PEG4-DOTA])[dY][dW]NTF[azaGly]L[Api](Gly(N-(3-F-4-Me-benzyl)))W-NH2) | < 10 |
| Cc1ccc(CNCC(=O)N2CCC(NC(=O)[C@H](CC(C)C)NC(=O)NNC(=O)[C@H](Cc3ccccc3)NC(=O)[C@@H](NC(=O)[C@H](CC(N)=O)NC(=O)CN3CCC(NC(=O)CN4CCN(CC(=O)O)CCN(CC(=O)O)CCN(CC(=O)O)CC4)CC3)[C@@H](C)O)(C(=O)N[C@@H](Cc3c[nH]c4ccccc34)C(N)=O)CC2)cc1F [Compound 158] ({DOTA}-[X1]NTF[azaGly]L[Api](Gly(N-(3-F-4-Me-benzyl)))W-NH2) | < 10 |
| Cc1ccc(CNCC(=O)N2CCC(NC(=O)[C@H](CC(C)C)NC(=O)NNC(=O)[C@H](Cc3ccccc3)NC(=O)[C@@H](NC(=O)[C@H](CC(N)=O)NC(=O)[C@@H](Cc3ccncc3)NC(=O)[C@@H](Cc3ccc(O)cc3)NC(=O)CCCCCNC(=O)CN3CCN(CC(=O)O)CCN(CC(=O)O)CCN(CC(=O)O)CC3)[C@@H](C)O)(C(=O)N[C@@H](Cc3c[nH]c4ccccc34)C(N)=O)CC2)cc1F [Compound 31] ({DOTA-Ahx}-[dY][d4Pal]NTF[azaGly]L[Api](Gly(N-(3-F-4-Me-benzyl)))W-NH2) | < 10 |
| Cc1ccc(CNCC(=O)N2CCC(NC(=O)[C@H](CC(C)C)NC(=O)NNC(=O)[C@H](Cc3ccccc3)NC(=O)[C@@H](NC(=O)[C@H](CCC(=O)O)NC(=O)CN3CCC(NC(=O)CN4CCN(CC(=O)O)CCN(CC(=O)O)CCN(CC(=O)O)CC4)CC3)[C@@H](C)O)(C(=O)N[C@@H](Cc3c[nH]c4ccccc34)C(N)=O)CC2)cc1F [Compound 234] ({DOTA}-[X1]ETF[azaGly]L[Api](Gly(N-(3-F-4-Me-benzyl)))W-NH2) | < 10 |
| CC(C)C[C@H](NC(=O)NNC(=O)[C@H](Cc1ccc(I)cc1)NC(=O)[C@@H](NC(=O)[C@H](CC(N)=O)NC(=O)[C@H](Cc1c2ccccc2cc2ccccc12)NC(=O)[C@@H](Cc1ccc(O)cc1)NC(=O)CN1CCN(CC(=O)O)CCN(CC(=O)O)CCN(CC(=O)O)CC1)[C@@H](C)O)C(=O)NC1(C(=O)N[C@@H](Cc2ccncc2)C(N)=O)CCN(C(=N)N)CC1 [Compound 188] ({DOTA}-[dY][Ala(9-anthryl)]NT[Phe(4-I)][azaGly]L[Api(1-amidino)][4Pal]-NH2) | 10 to 100 |
